Assay results taken from patent US11542311B2, “Fusion protein, preparation method therefor and application thereof in preparing ophthalmic disease treatment, anti-inflammation and anti-tumor medicament” (JIANGSU RONGTAI BIOTECH CO., LTD., priority 2017, dated 2023).

Key:
[1] = test system: human retinal vascular endothelial cell (HRCEC); test: MTT assay, proliferation of human retinal vascular endothelial cell (HRCEC); type: cell-based; conditions: 5 μg/mL, 48 h
Description: The activity of the integrin blocker polypeptide to inhibit proliferation of human retinal vascular endothelial cells was examined by MTT assay. HRCEC cells were cultured in a 5% CO2 incubator at 37° C. to a density of 90% or more, and then collected by trypsinization. The cells were resuspended in the culture liquid and counted under a microscope. The cell concentration was adjusted to 3.0×10^4 cells/mL. The cell suspension was inoculated into a 96-well plate, 100 μL per well, and cultured overnight in a 5% CO2 incubator at 37° C. […] After the cells were fully adhered, each dilution was added to a 96-well plate, 100 μL per well, respectively. […] 20 μL of 5 mg/mL MTT was added to each well of a 96-well plate, and incubation was continued for 4 hours. The medium was aspirated and 100 μL of DMSO was added per well for dissolution. The absorbance was measured at 570 nm with a microplate reader with a reference wavelength of 630 nm, and the proliferation inhibition (PI) was calculated. The formula was as follows: […]
where Ntest is the OD value of the test group and Ncontrol is the OD value of the blank control group.
The test was repeated 5 times independently. The results obtained from the test were calculated as mean±SD, and statistical t-test was performed. P<0.05 was considered as a significant difference, and P<0.01 was considered as an extremely significant difference.

[2] = test system: angiogenesis of chicken embryo chorioallantoic membrane; test: Chicken embryo chorioallantoic membrane (CAM) angiogenesis assay; type: in vivo, White Leghorn chicken embryos; conditions: 10 μg, 72 hours
Description: The study has shown that the biosynthesis rate of collagen reached the maximum on the 8th to 11th day of chicken embryo development, which was the most vigorous stage of angiogenesis, and the body's immune system had not yet been fully established at that time, and thus the chicken embryos developed to the 8th day was selected to be administered. […] The following steps were used:
(1) The White Leghorn chicken embryos on day 6 were cultured in a 37° C. incubator at 60%-70% humidity for two days.
(2) A 1.0 cm×1.0 cm window was drilled above the chicken embryo air sac, and the inner membrane was torn off with forceps to expose the chorioallantoic membrane. Lens paper having a diameter of 5 mm was used as a loading carrier, and was placed on the chorioallantoic membrane of the chicken embryo air sac. […]
(3) The chicken embryo air sac was sealed with a sterile transparent tape, and after culturing at 37° C. for 72 hours, the chicken embryo air sac was opened, and a fixative (formaldehyde:acetone=1:1) was added for fixation for 15 minutes. The chorioallantoic membrane to which the lens paper was adhered was taken out, the distribution of the new blood vessels was observed, and the new blood vessels were counted and photographed. Five replicates were set for each dose and the results were statistically analyzed.

[3] = test system: toe swelling in rat induced by carrageenan; test: Acute inflammation of toe swelling in rat induced by carrageenan; type: in vivo, SD rats; conditions: 10 mg/kg
Description: 80 SD rats were randomly divided into 8 groups with 10 mice for each group. […] The drug was administered once by injection every 5 days, and the model group was given an equal volume of physiological saline for 3 days and fed normally. On the third day after the administration, 0.1 mL of 1% carrageenan was injected subcutaneously into the right hind toes of the rats to induce inflammation. The foot volume was measured at 1 h, 3 h, 5 h, and 7 h after inflammation. The swelling degree of the foot was calculated according to the following formula: the swelling degree of the foot (mL)=the volume of the foot after inflammation−the volume before inflammation. The number of milliliters of spilled liquid was recorded (method: the protruding point of the right joint was circled with a ballpoint pen and used as a measurement mark, and the right hind feet of the rats were sequentially placed in the volume measuring device, so that the hind limbs were exposed outside the cylinder, and the depth of the immersion was limited to the overlap of the circle and the liquid level. After the foot entered the liquid, the liquid level was raised, and the volume of the spilled liquid was the volume of the right hind foot of the rat, and the normal volume of the right hind foot of each mouse is sequentially determined).

[4] = test system: IL-1β production by mouse peritoneal macrophages; test: IL-1β production by mouse peritoneal macrophages (ELISA); type: cell-based; conditions: 20 μg/mL, 48 h
Description: (1) IL-1β production: mice were intraperitoneally injected with 1 mL of broth medium containing 6% starch, and three days later, the mouse peritoneal macrophages were aseptically taken, washed twice with a 1640 medium, adjusted to the cell concentration of 2×10^6 cells/mL, inoculated into a 24-well culture plate, 1 mL/well, incubated for 3 h in a cell culture incubator, and shaken once every 30 min, so that the cells were allowed to adhere sufficiently. Then, the cells were washed twice with a culture liquid to remove un-adhered cells. […] After administration, the culture was continued for 48 h, the cells were centrifuged at 1000 r/min for 15 min. The supernatant was taken as a sample for testing activity of IL-1β.
(2) Determination of IL-1β content: the detection was performed by using mouse IL-1β enzyme-linked immunosorbent assay kit from R&D company. […]

[5] = test system: peritoneal capillary permeability in mice; test: Peritoneal capillary permeability in mice (Evans blue, HAc); type: in vivo, Kunming mice; conditions: 10 mg/kg by injection
Description: The drug was administered once by injection every 5 days, and the blank model group was given an equal volume of physiological saline for 5 days and fed normally. On the 5th day after the administration, a 5 g/L of Evans blue physiological saline solution was injected into the tail vein at […], followed by intraperitoneal injection ([…]) HAc solution (6 mL/L) to induce inflammation. After 20 min, the mice were sacrificed by cervical dislocation. 5 mL of physiological saline was intraperitoneally injected, the abdomen was gently rubbed for 2 min, the abdominal cavity was cut, a peritoneal washing solution was collected and centrifuged at 4000 rpm for 10 min, 1 mL of supernatant was taken, and 3 mL of physiological saline was added to obtain a 4 mL of dilution. The absorbance OD value of the dilution was measured by an ultraviolet spectrophotometer at a wavelength of 590 nm, and the amount of pigment exudation was expressed by the OD590 nm value, and peritoneal capillary permeability in mice was examined.

mouse spleen lymphocytes = test: Proliferation of mouse spleen lymphocytes (ConA, MTT); type: cell-based; conditions: 20 μg/mL, 48 h
Description: Tris-NH4Cl was used to break the red blood cells, which were allowed to stand in an ice water bath for 4 min and centrifuged (1000 rpm, 5 min), the supernatant was discarded, and the cells were washed twice with sterile PBS.
The cells were statically cultured in a cell incubator at 37° C. for 48 h. After the completion of the culture, 20 μL of MTT was added to each well, and the culture was continued for 4 h. Finally, all the solutions in each well were discarded, 100 μL of DMSO was added to each well, and the mixture was shaken and detected by a microplate reader for OD value at 570 nm. 5 parallels were preformed for per well.

| Compound | A570 nm/A630 nm [1] | Blood vessel number [2] | Swelling degree ([3]; 1 h after carrageenan) | Swelling degree ([3]; 3 h after carrageenan) | Swelling degree ([3]; 5 h after carrageenan) | Swelling degree ([3]; 7 h after carrageenan) | IL-1β [4] | PI (%) ([4]; IL-1β) | Exudation rate (OD590) [5] | A570 nm/A630 nm (mouse spleen lymphocytes) | PI (%) (mouse spleen lymphocytes) |
| --- | --- | --- | --- | --- | --- | --- | --- | --- | --- | --- | --- |
| bevacizumab [Avastin ®, reference compound] | 0.4544 | 63 ± 17 | – | – | – | – | – | – | – | – | – |
| C[C@@H]1C[C@H]2[C@@H]3CCC4=CC(=O)C=C[C@]4(C)[C@@]3(F)[C@@H](O)C[C@]2(C)[C@@]1(O)C(=O)CO [Dex, dexamethasone, reference compound] | – | – | 0.21 ± 0.11 mL | 0.26 ± 0.10 mL | 0.26 ± 0.11 mL | 0.25 ± 0.09 mL | 322.46 ± 20.56 pg/mL | 61.38% | 0.27 ± 0.03 | 0.3468 ± 0.1144 | 41.11% |
